# pIC50: −log10 of the molar value. Where two headings read alike, the source gives them in different places.
# Columns and labels:
# SFV [1] = experiment: microbe, parasite or virus in culture; assay type: cell-based, Semliki Forest virus; settings: for pIC50: read-out: IC50 SFV (7 h); for % inhibition (SFV screen): 10 µM
# DENV-2 = DENV-2 infection assay / secondary screen (E protein staining); assay type: cell-based, dengue virus serotype 2; settings: for % inhibition (DENV-2 screen): 10 µM
# SINV = experiment: microbe, parasite or virus in culture; assay type: cell-based, Sindbis virus; settings: read-out: IC50 SINV
# DENV-1 = experiment: microbe, parasite or virus in culture; assay type: cell-based, dengue virus
# ZIKV = experiment: microbe, parasite or virus in culture; assay type: cell-based, Zika virus
# YF17D = experiment: organism not typed; assay type: cell-based, yellow fever 17D
# HCV = experiment: microbe, parasite or virus in culture; assay type: cell-based, hepatitis C virus
# VSV VLP = experiment: microbe, parasite or virus in culture; assay type: cell-based, vesicular stomatitis virus; settings: read-out: IC50 VSV
# RABV VLP = experiment: microbe, parasite or virus in culture; assay type: cell-based, rabies virus; settings: read-out: IC50 RABV
# H5N1 VLP = experiment: microbe, parasite or virus in culture; assay type: cell-based, influenza H5N1
# EBOV VLP = experiment: microbe, parasite or virus in culture; assay type: cell-based, Ebola virus
# HIV-1 = experiment: microbe, parasite or virus in culture; assay type: cell-based, human immunodeficiency virus type 1; settings: read-out: IC50 HIV
# HSV-1 = experiment: microbe, parasite or virus in culture; assay type: cell-based, herpes simplex virus 1
# [2] = test system: Renilla luciferase expression (protein synthesis); assay type: cell-based
# viruses/VLPs tested = assay type: cell-based
# HeLa Kyoto cells [3] = test system: HeLa Kyoto cells
# Huh7 cells [4] = settings: human
# in vitro [5] = settings: human, % viability (SFV screen)
# in vitro [6] = settings: human
# HeLa Kyoto cells [7] = settings: 10 µM
# Huh7 cells [8] = settings: 10 µM
# DENV-3 = experiment: microbe, parasite or virus in culture; assay type: cell-based, dengue virus; settings: read-out: IC50 DENV-3
# VACV = experiment: microbe, parasite or virus in culture; assay type: cell-based, vaccinia virus; settings: read-out: IC50 VACV
# SFV [9] = assay type: cell-based, Semliki Forest virus
# Huh7 cells [10] = experiment: MTT assay, Huh7 cells
# [11] = Huh7, 24 h, compared to DMSO-treated controls
# [12] = Huh7, MOI 1, 24 h, compared to DMSO-treated controls
smiles,measurement,setting,value
CNc1ccc2oc(C[C@H]3O[C@@]4(CC[C@H]3C)O[C@H]([C@H](C)C(=O)c3ccc[nH]3)[C@H](C)C[C@H]4C)nc2c1C(=O)O [Calcimycin],pIC50,"SFV [1]; Semliki Forest virus, HeLa Kyoto",6.22
same,inhibition at 10 µM,"SFV [1]; Semliki Forest virus, M-HeLa, 7 h, read-out: % inhibition (SFV screen)",91.4%
same,inhibition at 10 µM,"DENV-2; Dengue virus, DENV2, Huh-7, 24 h, read-out: % inhibition (DENV-2 screen)",100%
same,pIC50,"DENV-2; Dengue virus, DENV2, Huh-7, 24 h, read-out: IC50 DENV-2 (7 + 17 h)",5.36
same,pIC50,"DENV-2; Dengue virus, DENV2, Huh-7, 24 h, read-out: IC50 DENV-2 (24 h)",6.42
same,pIC50,"SINV; Sindbis virus, HeLa Kyoto",5.68
same,pIC50,"DENV-1; Dengue virus, DENV1, Huh-7, read-out: IC50 DENV-1",5.37
same,pIC50,"ZIKV; Zika virus, Huh-7, read-out: IC50 ZIKV",4.77
same,pIC50,"YF17D; Huh-7, read-out: IC50 YF17D",6.40
same,pIC50,"HCV; Hepatitis C virus, Huh7.5, read-out: IC50 HCV",5.84
same,pIC50,"VSV VLP; Vesicular stomatitis virus, HeLa Kyoto, 24 h",7.00
same,pIC50,"RABV VLP; Lyssavirus rabies, HeLa Kyoto, 24 h",6.15
same,pIC50,"H5N1 VLP; Influenza A virus, H5N1, HeLa Kyoto, 48 h, read-out: IC50 H5N1",6.40
same,pIC50,"EBOV VLP; Zaire ebolavirus, HeLa Kyoto, 48 h, read-out: IC50 EBOV",6.30
same,pIC50,"HIV-1; Human immunodeficiency virus 1, 24 h",5.60
same,pIC50,"HSV-1; Human alphaherpesvirus 1, Vero, 8 h, read-out: IC50 HSV (Vero)",> 6.30
same,Decrease of Renilla signal (protein synthesis),[2],more than 50%
same,Inhibition of protein synthesis at lower concentrations,[2],lose their inhibitory activity on protein synthesis
same,Viruses Inhibited,viruses/VLPs tested,All tested
same,TC50 SFV (7 h),HeLa Kyoto cells [3]; human,4.1 µM
same,TC50 SFV (7h),HeLa Kyoto cells [3]; human,4100 µM
same,TC50 DENV-2 (7 + 17 h),Huh7 cells [4],>50 µM
same,TC50 DENV-2 (24 h),Huh7 cells [4],6.7 µM
same,viability at 10 µM,in vitro [5],34.4%
same,viability at 10 µM,in vitro [6],40%
COc1ccc(C[C@@H](C)NC[C@H](O)c2ccc(O)c(NC=O)c2)cc1.COc1ccc(C[C@@H](C)NC[C@H](O)c2ccc(O)c(NC=O)c2)cc1.O=C(O)/C=C/C(=O)O [Formoterol fumarate],% inhibition (SFV screen),SFV [1],86.74%
same,% inhibition (DENV-2 screen),DENV-2,-41.42%
same,% viability (SFV screen),"HeLa Kyoto cells [7]; HeLa Kyoto, 7 h, compared to DMSO-treated controls, LOPAC and Prestwick samples listed separately",97.47%
same,% viability (DENV-2 screen),Huh7 cells [8]; [11],102.07%
Cl.Cl.Fc1ccc(C(OCCN2CCN(CCCc3ccccc3)CC2)c2ccc(F)cc2)cc1 [GBR 12909 dihydrochloride],% inhibition (SFV screen),SFV [1],75.39%
same,% inhibition (DENV-2 screen),DENV-2; [12],83.87%
same,% viability (SFV screen),HeLa Kyoto cells [7],90.30%
same,% viability (DENV-2 screen),Huh7 cells [8],38.91%
CCOC(=O)N1CCN(/[N+]([O-])=N/Oc2ccc([N+](=O)[O-])cc2[N+](=O)[O-])CC1 [JS-K],% inhibition (SFV screen),SFV [1],84.89%
same,% inhibition (DENV-2 screen),DENV-2; [12],84.24%
same,% viability (SFV screen),HeLa Kyoto cells [7],66.74%
same,% viability (DENV-2 screen),Huh7 cells [8]; [11],53.82%
"Cc1ccc(S(=O)(=O)N[C@@H](Cc2ccccc2)C(=O)CCl)cc1 [N-p-Tosyl-L-PCK, N-p-Tosyl-L-phenylalanine chloromethyl ketone]",% inhibition (SFV screen),SFV [1],82.34%
same,pIC50,SFV [1],4.97
same,% inhibition (DENV-2 screen),DENV-2; [12],60.35%
same,pIC50,"DENV-2; Huh7, compounds 7 h then media replaced for 17 h, read-out: IC50 DENV-2 (7 + 17 h)",4.71
same,pIC50,"DENV-2; Huh7, compounds for entire 24 h, read-out: IC50 DENV-2 (24 h)",5.12
same,pIC50,SINV,4.92
same,pIC50,DENV-1; read-out: IC50 DENV-1,4.59
same,pIC50,DENV-3,4.62
same,pIC50,ZIKV; read-out: IC50 ZIKV,4.61
same,pIC50,YF17D; read-out: IC50 YF17D,5.34
same,pIC50,HCV; read-out: IC50 HCV,~4.89
same,pIC50,VSV VLP,4.94
same,pIC50,RABV VLP,4.82
same,IC50 H5N1,H5N1 VLP,No inhibition
same,IC50 EBOV,EBOV VLP,No inhibition
same,pIC50,HIV-1,4.90
same,IC50 HSV (Vero),HSV-1,No inhibition
same,pIC50,VACV,4.84
same,Decrease of Renilla signal (protein synthesis),[2],more than 50%
same,Inhibition of protein synthesis at lower concentrations,[2],partially inhibits protein synthesis but not virus infection
same,Activity when added before SFV or 30 and 60 min after internalisation,SFV [9],act exclusively before (or at the stage of) fusion
same,Time of Addition,SFV [9],Before fusion
same,Viruses Inhibited,viruses/VLPs tested,Unclear pattern
same,TC50 SFV (7 h),HeLa Kyoto cells [3],42.7 µM
same,TC50 SFV (7h),HeLa Kyoto cells [3],42700 µM
same,% viability (SFV screen),HeLa Kyoto cells [7],95.24%
same,% viability (DENV-2 screen),Huh7 cells [8],58.91%
same,TC50 DENV-2 (7 + 17 h),"Huh7 cells [10]; Huh7, compounds 7 h then compound-free media 17 h",24.2 µM
same,TC50 DENV-2 (24 h),"Huh7 cells [10]; Huh7, compounds 24 h",31.7 µM

# — PMC6410080 (Viruses, 2019)
